Molecular target: T1, GPR40 (Homo sapiens, UniProt O14842)
T1 construct: expressed in transfected cells
Assay: Cell-Based Aequorin Assay (agonistic activity)
Conditions: 1 μM test compound; percentage of the activity of the reference agonist at its EC100 concentration
Procedure: <In Vitro Assay 1> Cell-Based Aequorin Assay
Recombinant cells grown 18 h prior to the test in media without antibiotics were detached by gentle flushing with PBS-EDTA (5 mM EDTA), recovered by centrifugation and resuspended in “assay buffer” (DMEM/HAM's F12 with HEPES+0.1% BSA fatty-acid free). Cells were incubated at room temperature for at least 4 h with Coelenterazine (Molecular Probes). Dose response curves with the reference compounds were performed before testing the compounds.
For agonistic activity testing, 50 μL of cell suspension was injected on 96-well plates with plated 50 μL of test compounds or reference agonist. The resulting emission of light was recorded using the Hamamatsu Functional Drug Screening System 6000 (FDSS 6000).
To standardize the emission of recorded light (determination of the “100% signal”) across plates and across different experiments, some of the wells contained the reference agonist at its EC100 obtained during the test validation. Agonistic activities of test compounds were expressed as a percentage of the activity of the reference agonist at its EC100 concentration.

T1 sequence (O14842 whole entry): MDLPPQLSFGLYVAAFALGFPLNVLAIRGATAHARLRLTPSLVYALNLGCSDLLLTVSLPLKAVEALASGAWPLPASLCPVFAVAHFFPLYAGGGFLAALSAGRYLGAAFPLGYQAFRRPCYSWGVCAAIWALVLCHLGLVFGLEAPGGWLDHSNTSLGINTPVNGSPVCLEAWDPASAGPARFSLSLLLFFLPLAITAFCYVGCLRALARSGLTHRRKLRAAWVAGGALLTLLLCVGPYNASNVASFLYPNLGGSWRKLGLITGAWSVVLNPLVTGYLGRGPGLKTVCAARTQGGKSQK

Row | SMILES | Agonistic activity (%, 1 μM)
1 | CC#C[C@@H](CC(=O)O)c1ccc(O[C@@H]2CCc3c(-c4cncc(O[C@@H]5CCOC5)c4)ccc(F)c32)cc1 [Example 15, (S)-3-(4-(((R)-7-Fluoro-4-(5-(((R)-tetrahydrofuran-3-yl)oxy)pyridin-3-yl)-2,3-dihydro-1H-inden-1-yl)oxy)phenyl)hex-4-ynoic acid] | ++ (++: 40-70)
2 | CC#C[C@@H](CC(=O)O)c1ccc(O[C@@H]2CCc3c(-c4cnc(OC5CCOCC5)c(C#N)c4)ccc(F)c32)cc1 [Example 19, (S)-3-(4-(((R)-4-(5-Cyano-6-((tetrahydro-2H-pyran-4-yl)oxy)pyridin-3-yl)-7-fluoro-2,3-dihydro-1H-inden-1-yl)oxy)phenyl)hex-4-ynoic acid] | +++ (+++: over 70)
3 | CC#C[C@@H](CC(=O)O)c1ccc(O[C@@H]2CCc3c(-c4cnc(O[C@@H]5CCOC5)c(C#N)c4)ccc(F)c32)cc1 [Example 18, (S)-3-(4-(((R)-4-(5-Cyano-6-(((R)-tetrahydrofuran-3-yl)oxy)pyridin-3-yl)-7-fluoro-2,3-dihydro-1H-inden-1-yl)oxy)phenyl)hex-4-ynoic acid] | +++ (+++: over 70)
4 | CC#C[C@@H](CC(=O)O)c1ccc(O[C@@H]2CCc3c(-c4cnc(O[C@@H]5CCOC5)cc4C)ccc(F)c32)cc1 [Example 8, (S)-3-(4-(((R)-7-Fluoro-4-(4-methyl-6-(((R)-tetrahydrofuran-3-yl)oxy)pyridin-3-yl)-2,3-dihydro-1H-inden-1-yl)oxy)phenyl)hex-4-ynoic acid] | ++ (++: 40-70)
5 | CC#C[C@@H](CC(=O)O)c1ccc(O[C@@H]2CCc3c2ccc(F)c3-c2ccc(OC3CCOCC3)nc2)cc1 [Example 24, (S)-3-(4-(((R)-5-Fluoro-4-(6-((tetrahydro-2H-pyran-4-yl)oxy)pyridin-3-yl)-2,3-dihydro-1H-inden-1-yl)oxy)phenyl)hex-4-ynoic acid] | +++ (+++: over 70)
6 | CC#C[C@@H](CC(=O)O)c1ccc(O[C@@H]2CCc3c2ccc(F)c3-c2ccc(O[C@@H]3CCOC3)nc2)cc1 [Example 21, (S)-3-(4-(((R)-5-Fluoro-4-(6-(((R)-tetrahydrofuran-3-yl)oxy)pyridin-3-yl)-2,3-dihydro-1H-inden-1-yl)oxy)phenyl)hex-4-ynoic acid] | +++ (+++: over 70)
7 | CC#C[C@@H](CC(=O)O)c1ccc(O[C@@H]2CCc3c2ccc(C#N)c3-c2ccc(O[C@@H]3CCOC3)nc2)cc1 [Example 20, (S)-3-(4-(((R)-5-Cyano-4-(6-(((R)-tetrahydrofuran-3-yl)oxy)pyridin-3-yl)-2,3-dihydro-1H-inden-1-yl)oxy)phenyl)hex-4-ynoic acid] | +++ (+++: over 70)
8 | CC#C[C@@H](CC(=O)O)c1ccc(O[C@@H]2CCc3c(-c4ccc(OC5CCS(=O)(=O)CC5)nc4)ccc(F)c32)cc1 [Example 1, (S)-3-(4-(((R)-4-(6-((1,1-Dioxidotetrahydro-2H-thiopyran-4-yl)oxy)pyridin-3-VI)-7-fluoro-2,3-dihydro-1H-inden-1-yl)oxy)phenyl)hex-4-ynoic acid] | + (+: under 40)
9 | CC#C[C@@H](CC(=O)O)c1ccc(O[C@@H]2CCc3c(-c4cncc(OC5CCOCC5)c4)ccc(F)c32)cc1 [Example 16, (S)-3-(4-(((R)-7-Fluoro-4-(5-((tetrahydro-2H-pyran-4-yl)oxy)pyridin-3-yl)-2,3-dihydro-1H-inden-1-yl)oxy)phenyl)hex-4-ynoic acid] | ++ (++: 40-70)
10 | CC#C[C@@H](CC(=O)O)c1ccc(O[C@@H]2CCc3c(-c4ccc(OC5CCOCC5)nc4)ccc(F)c32)cc1 [Example 6, (S)-3-(4-(((R)-7-Fluoro-4-(6-((tetrahydro-2H-pyran-4-yl)oxy)pyridin-3-yl)-2,3-dihydro-1H-inden-1-yl)oxy)phenyl)hex-4-ynoic acid] | +++ (+++: over 70)
11 | CC#C[C@@H](CC(=O)O)c1ccc(O[C@@H]2CCc3c(-c4ccc(O[C@@H]5CCOC5)nc4)ccc(F)c32)cc1 [Example 5, (S)-3-(4-(((R)-7-Fluoro-4-(6-(((R)-tetrahydrofuran-3-yl)oxy)pyridin-3-yl)-2,3-dihydro-1H-inden-1-yl)oxy)phenyl)hex-4-ynoic acid] | +++ (+++: over 70)
12 | CC#C[C@@H](CC(=O)O)c1ccc(O[C@@H]2CCc3c(-c4ccc(O[C@H]5CCOC5)nc4)ccc(F)c32)cc1 [Example 7, (S)-3-(4-(((R)-7-Fluoro-4-(6-(((S)-tetrahydrofuran-3-yl)oxy)pyridin-3-yl)-2,3-dihydro-1H-inden-1-yl)oxy)phenyl)hex-4-ynoic acid] | +++ (+++: over 70)
13 | CC#C[C@@H](CC(=O)O)c1ccc(O[C@@H]2CCc3c(-c4ccc(OCCN5CCS(=O)(=O)CC5)nc4)ccc(F)c32)cc1 [Example 3, (S)-3-(4-(((R)-4-(6-(2-(1,1-Dioxidothiomorpholino)ethoxy)pyridin-3-yl)-7-fluoro-2,3-dihydro-1H-inden-1-yl)oxy)phenyl)hex-4-ynoic acid] | + (+: under 40)
14 | Cc1cc(OCCCS(C)(=O)=O)cc(C)c1-c1cccc(COc2ccc3c(c2)OC[C@H]3CC(=O)O)c1 [Comparative Example 1, reference compound] | +++ (+++: over 70)
15 | CC#C[C@@H](CC(=O)O)c1ccc(O[C@@H]2CCc3c(-c4cnc(OC5CCOCC5)c(Cl)c4)ccc(F)c32)cc1 [Example 17, (S)-3-(4-(((R)-4-(5-Chloro-6-((tetrahydro-2H-pyran-4-yl)oxy)pyridin-3-yl)-7-fluoro-2,3-dihydro-1H-inden-1-yl)oxy)phenyl)hex-4-ynoic acid] | +++ (+++: over 70)
